# Patent US12194033B2, “Glycine receptor modulators and methods of use” (University of Pittsburgh—Of the Commonwealth System of …, priority 2017, dated 2025)
# Target: T1, 5-HT3R (Homo sapiens, UniProt P46098)
# T1 sequence (P46098 24-478): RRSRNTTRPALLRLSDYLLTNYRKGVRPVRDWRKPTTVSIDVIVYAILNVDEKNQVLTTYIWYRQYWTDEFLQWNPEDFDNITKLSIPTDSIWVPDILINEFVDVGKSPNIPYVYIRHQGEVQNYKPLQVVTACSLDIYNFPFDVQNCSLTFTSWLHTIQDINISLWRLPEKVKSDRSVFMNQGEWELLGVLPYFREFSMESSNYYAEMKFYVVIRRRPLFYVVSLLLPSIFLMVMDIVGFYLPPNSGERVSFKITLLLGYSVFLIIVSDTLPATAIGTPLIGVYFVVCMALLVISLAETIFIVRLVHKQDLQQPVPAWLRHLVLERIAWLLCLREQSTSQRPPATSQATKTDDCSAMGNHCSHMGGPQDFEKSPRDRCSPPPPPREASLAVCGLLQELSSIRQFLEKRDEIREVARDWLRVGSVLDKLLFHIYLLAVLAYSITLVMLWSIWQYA
# Experiment: Radioligand binding assay, off-target profiling
# Settings: 10 M MJPY1, mean, n = 4
structure (smiles),measurement,value
"NC(=O)c1cccc(CNC(=O)c2ccc3c4c(cccc24)CC3)c1 [compound 1, N-[(3-carbamoylphenyl)-methyl]-1,2-dihydroacenaphthylene-5-carboxamide]",% Inhibition 5-HT3R,−5.7%
